# Laboratory results as given in US20240368644A1, “METHODS TO PRODUCE THERAPEUTIC FORMULATIONS COMPRISING HYDROXYBUTIRATE AND HYDROXYVALERATE, THERAPEUTIC FORMULATIONS AND USES THEREOF” (PHB Industrial S.A., priority 2021, published 2024).
# Legend:
# [1] = Ketotic efficiency (net elevation of circulating ketones over time per dose); format: in vivo, human; conditions: person at rest, concentration of DBHB + DBHV in composition with D-1,3BD; for 1 hour ketotic efficiency: 1 hour post-administration; for 2 hours ketotic efficiency: 2 hours post-administration
# Excerpt: (§1) Examples include using a composition including D-BHB, D-BHV, and D-1,3BD in a subject at rest. The ketotic efficiency represents the net elevation of circulating ketones a ketone supplement affects over time in an individual. Ketotic efficiency may be represented as:
# where mMol/L is the concentration of circulating p-hydroxybutyrate in the blood, g is the total dose of the combined D-BHB, D-BHV, and D-1,3,BD in grams, kg is the mass of the individual in kilograms, and t is an increment of time in minutes.
# The ketotic efficiency of the D-BHB, D-BHV, and D-1,3BD blend measured over of one hour in this exemplary study is 43% to 104% greater than the administration of pure (D)-1,3 butanediol or pure (D)-β-hydroxybutyric acid alone, respectively. While this example pertains to a fasted subject at rest, the relative utility of blended vs pure constituents has also been observed in fed and active subjects.
# FIG. 2 represents the expected ketosis for a person at rest with a 0.13 g/kg dose of (D)-β-hydroxybutyric acid, (D)-β-hydroxyvaleric acid, and (D)-1,3 butanediol over time for the periods shown. […] Administration of examples in accordance with the present disclosure are expected to cause efficient, prolonged rises in circulating blood ketone levels in a manner that is unexpected based on the current literature. As shown in the following table, the highest efficiency at both 1 and 2 hours post-administration was obtained at 45% D-BHB+D-BHV (0.96:0.04) to 55% D-1,3BD and the lowest efficiency was observed when administering D-BHB or D-1,3BD alone.
# [2] = Increase in circulating ketone level after administration of D-BHB, D-BHV and D-1,3BD in various ratios, subjects at rest; format: in vivo, human; conditions: for Max change in mMol/L (increase in circulating ketone level): 10 g dose, three human subjects at rest, composition given as % D-BHB acid; for prolonged rise of blood ketone levels: based on measured plasma levels of FIG. 1
# Excerpt: as §1
# As illustrated by the examples of FIG. 1, these exemplary compositions can advantageously elevate circulating ketones by approximately two times greater than other known compositions. Such a composition can sustain ketonemia for longer than either D-BHB or D-1,3BD can when ingested alone by a subject of a given weight as shown by the 100% line (i.e., contains D-BHB, but not D-1,3BD) and the 0% line (i.e., contains only D-1,3BD, but not D-BHB).
# As shown in the following table, the increase in circulating ketone level with a 10 g dose in three human subjects at rest was maximal at between 45-55% D-BHB in the tested compositions.
# [3] = test system: patients with glucose transporter 1 deficiency syndrome (GLUT1); conditions: cited from earlier work
Structure (SMILES),1 hour ketotic efficiency [1],2 hours ketotic efficiency [1],Max change in mMol/L (increase in circulating ketone level) [2],prolonged rise of blood ketone levels [2],decrease of paroxysmal non-epileptic manifestations [3]
"CC(O)CCO (stereo not drawn) [0%, (D)-1,3 butanediol]",266 kg·mmol·min/g/L,462 kg·mmol·min/g/L,0.8 mmol/L,does not cause a prolonged rise of blood ketone levels,–
"CC(O)CC(=O)O (stereo not drawn) [100%, (D)-β-hydroxybutyric acid]",335 kg·mmol·min/g/L,566 kg·mmol·min/g/L,0.9 mmol/L,A similar result,–
"CCCCCCC(=O)OCC(COC(=O)CCCCCC)OC(=O)CCCCCC [triheptanoin, Triheptanoin]",–,–,–,–,90%
